From US20190365927A1, “COMPOSITION FOR PHOTODYNAMIC THERAPY USING GENE EXPRESSING FLUORESCENT PROTEIN AND PHOTOSENSITIZER, AND PHOTODYNAMIC THERAPY METHOD USING SAME” (priority 2017, published 2019)

How the values were obtained:
RFP+ and RFP− 4T1 cells [1] = experiment: In vitro PDT with tin ethyl etiopurpurin and yellow light over irradiation time, LDH and MTT analysis; type: cell-based, mouse; conditions: 1 μM, yellow laser light, in 2 seconds after light irradiation, FIG. 11, 12
Protocol: The yellow light was irradiated over time, and then photo inducing death of RFP+ and RFP− cells was measured by MTT analysis under the presence of tin ethyl etiopurpurin. The specific experimental procedure is as follows.
Specifically, tin ethyl etiopurpurin (Miravant Medical Technology Inc, USA) was diluted with RPMI-1640 medium containing 10% FBS to produce 1 μM concentration of tin ethyl etiopurpurin. Further, the RFP− or RFP+ 4T1 cells selected from the above 1-3 were pre-incubated in a 24-well plate at a density of 5×10^4 cells per well. The pre-cultured cells were then incubated with tin ethyl etiopurpurin for 4 h. After 4 hours, the cells were washed three times with PBS buffer. Then, the yellow laser light (570 nm; radiation dose rate=2 J/cm^2) was irradiated thereto for 0, 5 and 10 seconds. LDH analysis was then performed using the LDH Cytotoxicity Assay kit (Cayman Chemical Company, USA) according to the manufacturer's procedure. […] The absorbance was measured at 490 nm using a plate reader.
Further, the RFP− or RFP+ 4T1 cells selected from the 1-3 using the same method as described above were subjected to the yellow laser light (570 nm; radiation dose rate=2J/cm^2) for 0, 1, 2, 5, 7, or 10 secs. […] The absorbance of the reaction solution was measured at 570 nm. Cell viability was calculated by the following equation: […]

RFP+ and RFP− 4T1 cells [2] = experiment: In vitro PDT with varying tin ethyl etiopurpurin concentration, MTT analysis; type: cell-based, mouse; conditions: 0, 0.5, 1 and 2 μM, yellow laser light 5 seconds, FIG. 13
Protocol: After irradiation with yellow light, the photo inducing death of RFP+ and RFP− cells was measured by MTT analysis under the conditions of varying tin ethyl etiopurpurin concentrations. The specific experimental procedure is as follows.
Specifically, tin ethyl etiopurpurin was produced at 0, 0.5, 1 and 2 μM concentrations in the same method as described above. Then, the cells were cultured for 4 hours with RFP− or RFP+ 4T1 cells selected from the 1-3. MTT analysis was performed after irradiation of yellow laser light (570 nm; radiation dose rate=2 J/cm^2) thereto for 5 seconds.

[3] = test system: GFP+ 4T1 cells, RFP+ 4T1 cells and control 4T1 cells; experiment: In vitro PDT of GFP+ and RFP+ cells with photosensitizer and red, blue or yellow light, MTT analysis; type: cell-based, mouse; conditions: FIG. 14; for cytotoxicity in control, RFP+ and GFP+ cells: 1 μM photosensitizer
Protocol: The cytotoxicity of RFP+ or GFP+ cells was measured by MTT analysis in the presence of Ce6 (Chlorine (e6)), rose bengal or tin ethyl etiopurpurin as photosensitizer after red light, blue light or yellow light irradiation. The specific experimental procedure is as follows.
Specifically, Ce6 (santacruz, sc-263067), rose bengal (Sigma Aldrich, 330000-5G) or tin ethyl etiopurpurin as a photosensitizer was diluted with RPMI-1640 medium containing 10% FBS. Thus, 1 μM concentration of Ce6 (Chlorine (e6)), rose bengal or tin ethyl etiopurpurin was prepared. Further, GFP+ 4T1 cells selected in the 1-4 and RFP+ 4T1 cells selected in the 1-3 were pre-cultured at a density of 2×10^4 cells/well in 96-well, black, and clear bottom plates. The pre-cultured cells were then incubated with Ce6, rose bengal or tin ethyl etiopurpurin for 4 h. 4T1 cells without RFP or GFP introduced thereto were used as controls. After 4 hours, the cells were washed three times with PBS buffer. Then, red laser light (650 nm; radiation dose rate=2 J/cm^2) or blue laser light (488 nm; radiation dose rate=2 J/cm^2) or yellow laser light (570 nm, radiation dose rate=2 J/cm^2) was irradiated thereto for 5 seconds. After the irradiation, the fresh culture medium was added to the wells. Then, the cells were cultured again for 24 hours. MTT analysis was then performed.

[4] = test system: GFP+ 4T1 cells and RFP+ 4T1 cells; experiment: Experiment using artificial skin, MTT assay; type: cell-based, mouse; conditions: presence as well as absence of artificial skin (1 mm), 1 μM, yellow laser light, FIG. 17
Protocol: Actual skin condition was applied. photosensitizer was applied to GFP+ cell and RFP+ cell which in turn was irradiated with light. Then, cell death was measured by MTT assay. The specific experimental procedure is as follows.
Specifically, rose bengal and tin ethyl etiopurpurin at 1 μM concentration were produced in the same method as described in the 2-4. Then, the tin ethyl etiopurpurin was applied to RFP+ 4T1 cells selected from the 1-3. The rose bengal was applied to GFP+ 4T1 cells selected from 1-4. Then, the cells were cultured for 4 hours and washed three times with PBS buffer. Next, as shown in the schematic diagram of FIG. 16, an artificial skin tissue (AST, thickness 1 mm) (Geistlich Mucograft, Geistlich Pharma AG) was placed between the light source and the cell. Thus, the actual skin condition was established. Then, blue laser light (473 nm; radiation dose rate=2 J/cm^2) was applied to GFP+ cells for 5 seconds. Yellow laser light (580 nm; radiation dose rate=2 J/cm^2) were irradiated to RFP+ cells for 5 seconds. In 2 hours of the irradiation, the cells were washed twice with PBS buffer. MTT analysis was carried out in the same method as described in the Experimental Example 2-2. […]

[5] = test system: GFP+ A549, RFP+ A549 and YFP+ A549 cells; experiment: In vitro PDT of GFP+, RFP+ and YFP+ cells with photosensitizer, MTT analysis; type: cell-based, human; conditions: 1 μM, yellow laser light (570 nm), FIG. 21, 22
Protocol: Photo inducing death of GFP+, RFP+, and YFP+ cells via the photosensitizer was measured by MTT analysis. The specific experimental procedure is as follows.
To investigate photo inducing death of GFP+ cells, RFP+ cells, and YFP+ cells via the photosensitizer, rose bengal, hematoporphyrin (Sigma-aldrich #5518) or 5-ALA (5-Aminolevulinic acid hydrochloric, Sigma-aldrich # A3785) was diluted with RPMI medium containing 10% FBS. 1 μM concentration of rose bengal, hematoporphyrin or 5-ALA was prepared. Further, GFP+ A549 cells, RFP+ A549 cells and YFP+ A549 cells selected from the 1-4 were pre-incubated at a density of 5×10^3 cells per well on 96-well, black, and clear bottom plates. A549 cells with pcDNA 3.1 vector injected thereto were cultured as control. Then, each of the photosensitizers as produced was applied or not applied to the preincubated cells in the preincubated cells which in turn were cultured for 4 hours. After 4 hours, the cells were washed three times with PBS buffer. Irradiation or non-irradiation of blue laser light (488 nm; radiation dose rate=2 J/cm^2) or yellow laser light (570 nm; radiation dose rate=2 J/cm^2) thereto was carried out for 5 seconds. After irradiation or non-irradiation, a fresh culture medium was added to the wells. The cells were cultured again for 24 hours. MTT analysis was then performed.

eGFP+ and eGFP− cells = experiment: Cytotoxicity with Ce6 and 650-nm red laser light, eGFP+ versus eGFP− cells; type: cell-based; conditions: FIG. 5

CCOC(=O)C1=Cc2c3nc(cc4nc(cc5[n-]c(cc6[n-]c2c(C)c6CC)c(C)c5CC)C(C)=C4CC)[C@@H](C)[C@]13CC.[Cl-].[Cl-].[Sn] (racemic) [tin ethyl etiopurpurin]
RFP+ cell death compared to RFP− cell, by irradiation duration (RFP+ and RFP− 4T1 cells [1]): RFP+ cell death increased considerably | RFP+ cell death by treatment concentration (RFP+ and RFP− 4T1 cells [2]): increased remarkably | cytotoxicity in control, RFP+ and GFP+ cells ([3]; yellow laser light): cytotoxicity was seen only in RFP+ cells | degree of cytotoxicity in RFP+ cells versus GFP+ cells treated with rose bengal and blue laser light ([3]; 1 μM, yellow laser light): the degree of cytotoxicity was higher | cell death level of RFP+ cells versus GFP+ cells treated with rose bengal and blue laser light [4]: the cell death level was higher

Cl.NCC(=O)CCC(=O)O [5-ALA, 5-Aminolevulinic acid hydrochloride]
cell death effect in YFP+ cell and RFP+ cell [5]: significant cell death effect | cell death effect of RFP+ cell [5]: remarkable cell death effect

chlorine e6 [Ce6]
cytotoxicity for eGFP+ versus eGFP− cells (eGFP+ and eGFP− cells): not different from each other | cytotoxicity in control, RFP+ and GFP+ cells ([3]; red laser light (650 nm)): control, RFP+, and GFP+ cells showed cytotoxicity
